ChEMBL document CHEMBL1146958, “The SAR of 4-substituted (6,6-bicyclic) piperidine cathepsin S inhibitors” (Bioorg Med Chem Lett, 2006)

What follows are compounds tested against T1, Alpha-1A adrenergic receptor (Homo sapiens) (UniProt P35348) (assay: Inhibition of alpha 1A adrenergic receptor at 1 uM).
T1 sequence (whole entry): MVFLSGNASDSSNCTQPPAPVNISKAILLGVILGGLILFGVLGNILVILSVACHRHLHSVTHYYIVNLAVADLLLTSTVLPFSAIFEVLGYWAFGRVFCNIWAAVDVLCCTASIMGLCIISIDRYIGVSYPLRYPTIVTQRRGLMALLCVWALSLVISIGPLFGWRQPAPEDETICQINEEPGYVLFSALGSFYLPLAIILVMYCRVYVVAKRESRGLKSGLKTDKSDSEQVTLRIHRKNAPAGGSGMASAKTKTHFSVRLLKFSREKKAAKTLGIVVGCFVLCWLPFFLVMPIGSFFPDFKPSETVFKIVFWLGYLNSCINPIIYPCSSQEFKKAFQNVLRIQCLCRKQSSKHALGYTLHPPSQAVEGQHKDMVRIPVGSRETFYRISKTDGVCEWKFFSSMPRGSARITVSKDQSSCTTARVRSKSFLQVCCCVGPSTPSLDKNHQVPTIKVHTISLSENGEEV

SMILES | inhibition [%]
CS(=O)(=O)N1CCc2c(c(-c3ccc(C(F)(F)F)cc3)nn2CC(O)CN2CCC(N3C(=O)NCc4cc(Cl)ccc43)CC2)C1 (stereo unspecified) | 40
CS(=O)(=O)N1CCc2c(c(-c3ccc(C(F)(F)F)cc3)nn2CC(O)CN2CCC(N3C(=O)COc4ccccc43)CC2)C1 (stereo unspecified) | 60
CS(=O)(=O)N1CCc2c(c(-c3ccc(C(F)(F)F)cc3)nn2CCCN2CCC(N3C(=O)COc4ccccc43)CC2)C1 | 72
CS(=O)(=O)N1CCc2c(c(-c3ccc(C(F)(F)F)cc3)nn2CC(O)CN2CCC(N3C(=O)CCc4cc(Cl)ccc43)CC2)C1 (stereo unspecified) | < 10

What follows are compounds tested against Cathepsin S (Homo sapiens, UniProt P25774).
Chain of Cathepsin S (P25774 whole entry): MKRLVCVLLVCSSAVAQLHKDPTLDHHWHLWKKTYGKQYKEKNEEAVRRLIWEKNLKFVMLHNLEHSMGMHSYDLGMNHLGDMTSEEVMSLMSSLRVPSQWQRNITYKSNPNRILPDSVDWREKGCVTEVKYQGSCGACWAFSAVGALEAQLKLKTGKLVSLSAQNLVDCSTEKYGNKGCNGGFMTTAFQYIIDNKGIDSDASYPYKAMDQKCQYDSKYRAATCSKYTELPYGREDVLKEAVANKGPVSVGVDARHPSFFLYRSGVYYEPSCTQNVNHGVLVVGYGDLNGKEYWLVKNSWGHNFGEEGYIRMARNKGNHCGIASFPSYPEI
Description: Inhibition of cathepsin S

IC50 [nM] | SMILES
322 | CS(=O)(=O)N1CCc2c(c(-c3ccc(Br)cc3)nn2CC(O)CN2CCC(N3CCCc4ccccc43)CC2)C1 (stereo unspecified)
1700 | CS(=O)(=O)N1CCc2c(c(-c3ccc(C(F)(F)F)cc3)nn2CC(O)CN2CCN(c3ccnc4ccccc34)CC2)C1 (stereo unspecified)
1780 | CS(=O)(=O)N1CCc2c(c(-c3ccc(Br)cc3)nn2CC(O)CN2CCC(N3CCc4ccccc4C3)CC2)C1 (stereo unspecified)
75 | CS(=O)(=O)N1CCc2c(c(-c3ccc(Br)cc3)nn2CC(O)CN2CCC(N3c4ccc(Cl)cc4CNS3(=O)=O)CC2)C1 (stereo unspecified)

SMILES | IC50 [nM]
CS(=O)(=O)N1CCc2c(c(-c3ccc(Br)cc3)nn2CCCN2CCC(N3C(=O)COc4ccccc43)CC2)C1 | 60
CS(=O)(=O)N1CCc2c(c(-c3ccc(C(F)(F)F)cc3)nn2CC(O)CN2CCC(N3C(=O)OCc4ccccc43)CC2)C1 (stereo unspecified) | 88
CS(=O)(=O)N1CCc2c(c(-c3ccc(C(F)(F)F)cc3)nn2CC(O)CN2CCC(N3C(=O)COc4ccccc43)CC2)C1 (stereo unspecified) | 28
